Test results published in paper PMC12892976, “Alkylation-based optimization of antifungal FPPS inhibitors yields a potent, broad-spectrum lipophilic zoledronate derivative” (mBio, 2025).
≈ marks a conversion by molar mass, not a printed value.

Legend:
Test in all cases: squalene rescue assay
Format in all cases: cell-based
C. neoformans H99 = conditions: Cryptococcus neoformans, H99, read-out: EC50 (squalene concentration rescuing 50% of growth)
Experimental: (§1) Squalene rescue assays were performed as described previously ([7]). […] After incubation at 35°C for 24 h (C. albicans), 48 h (A. fumigatus), or 72 h (C. neoformans), OD600 was measured in a BioTek ELx800 plate reader.

C. albicans SC5314 = conditions: Candida albicans, SC5314, read-out: EC50 (squalene concentration rescuing 50% of growth)
Experimental: as §1

A. fumigatus ATCC 204305 = conditions: Aspergillus fumigatus, ATCC204305, read-out: EC50 (squalene concentration rescuing 50% of growth)
Experimental: as §1

Structure (SMILES): CC(C)=CCC/C(C)=C/CC/C(C)=C/CC/C=C(\C)CC/C=C(\C)CCC=C(C)C [squalene]
- EC50 (C. neoformans H99): 2.98 µg/mL (≈ 7.25 µM)
- EC50 (C. albicans SC5314): 12.4 µg/mL (≈ 30.3 µM)
- EC50 (A. fumigatus ATCC 204305): 23.3 µg/mL (≈ 56.7 µM)
